One assay deals with CSNK1A1 (Homo sapiens (Human), UniProt P48729). The assay can be described thus: CSNK1A1 Assay 2 (ADP-Glo, 1 μM ATP, substrate biotin-Ahx-KRRRAL-pS-VASLPGL). The class given is biochemical. To be noted: median, read-out: CSNK1A1 Assay 2 IC50 [mol/l] (median). An outline of the steps:
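GST-tagged full-length human CSNK1A1 from baculovirus-infected insect cells (about 0.0375 ng/μL), preincubated 15 min at 22 °C with compound in HEPES pH 7.5 buffer, with 1 μM ATP and biotin-Ahx-KRRRAL-pS-VASLPGL substrate. ADP formed read by ADP-Glo luminescence.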
A general note: In ADP-Glo the light output rises with the ADP produced.

The target in another assay is CSNK1D (Homo sapiens (Human), UniProt P48730). The assay can be described thus: CSNK1D Assay (ADP-Glo, 1 μM ATP). The class given is biochemical. The following applies: median, read-out: CSNK1D IC50 [mol/l] (median). An outline of the steps:
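Enzyme is N-terminal GST-tagged full-length human CSNK1D from baculovirus-infected insect cells (typically about 0.5 ng/μL), with a biotinylated peptide substrate and 1 μM ATP. Compound pre-incubated 15 min at 22° C in HEPES pH 7.5 buffer; ADP formed is read by ADP-Glo luminescence.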

Sequence of CSNK1A1 (P48729 whole entry): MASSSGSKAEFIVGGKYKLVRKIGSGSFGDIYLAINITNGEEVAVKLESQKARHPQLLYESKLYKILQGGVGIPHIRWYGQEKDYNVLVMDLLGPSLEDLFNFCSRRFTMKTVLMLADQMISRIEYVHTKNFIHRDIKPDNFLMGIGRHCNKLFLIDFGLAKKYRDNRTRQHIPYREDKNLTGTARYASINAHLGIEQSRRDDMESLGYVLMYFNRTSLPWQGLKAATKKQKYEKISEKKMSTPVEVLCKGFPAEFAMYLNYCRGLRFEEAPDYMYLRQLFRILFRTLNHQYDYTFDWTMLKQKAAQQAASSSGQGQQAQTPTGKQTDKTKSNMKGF
Sequence of CSNK1D (P48730 whole entry): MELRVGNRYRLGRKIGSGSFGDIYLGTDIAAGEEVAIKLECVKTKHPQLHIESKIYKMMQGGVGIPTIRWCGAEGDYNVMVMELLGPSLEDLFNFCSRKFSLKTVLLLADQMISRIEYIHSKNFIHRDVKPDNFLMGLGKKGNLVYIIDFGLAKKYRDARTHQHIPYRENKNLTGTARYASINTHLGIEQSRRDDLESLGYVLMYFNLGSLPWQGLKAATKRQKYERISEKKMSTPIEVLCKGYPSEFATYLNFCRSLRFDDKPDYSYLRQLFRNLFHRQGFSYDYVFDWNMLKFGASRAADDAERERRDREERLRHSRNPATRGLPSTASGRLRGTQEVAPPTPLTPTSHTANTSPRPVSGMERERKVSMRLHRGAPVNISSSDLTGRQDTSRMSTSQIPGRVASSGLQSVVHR

With `O=C(Cc1ccc(F)cc1)Nc1cc(-c2[nH]c3cc(F)cnc3c2-c2ccccn2)ccn1` [Example 9, 2-(4-fluorophenyl)-N-{4-[6-fluoro-3-(pyridin-2-yl)-1H-pyrrolo[3,2-b]pyridin-2-yl]pyridin-2-yl}acetamide], the IC50 on CSNK1A1 turned out to be 1.68 nM; at CSNK1D, 4.76 nM.
Taken in the same sequence, the figures for `O=C(Cc1ccc(F)cc1)Nc1cc(-c2[nH]c3cc(F)cnc3c2-c2ccccc2)ccn1` [Example 10, 2-(4-fluorophenyl)-N-[4-(6-fluoro-3-phenyl-1H-pyrrolo[3,2-b]pyridin-2-yl)pyridin-2-yl]acetamide] were 3.83 nM and 4.27 nM.
For the compound `O=C(Cc1ccc(F)cc1)Nc1cc(-c2[nH]c3cccnc3c2-c2ccccc2)ccn1` [Example 14, 2-(4-fluorophenyl)-N-[4-(3-phenyl-1H-pyrrolo[3,2-b]pyridin-2-yl)pyridin-2-yl]acetamide], the IC50 at CSNK1A1 was determined as 1.04 nM; at CSNK1D, 2.64 nM.
For `O=C(Cc1ccc(F)cc1)Nc1cc(-c2[nH]c3cccnc3c2-c2cccc(F)c2)ccn1` [Example 15, 2-(4-fluorophenyl)-N-{4-[3-(3-fluorophenyl)-1H-pyrrolo[3,2-b]pyridin-2-yl]pyridin-2-yl}acetamide], in that order: 1.87 nM and 3.4 nM.
On to `O=C(Cc1ccc(F)cc1)Nc1cc(-c2[nH]c3cccnc3c2-c2ncccn2)ccn1` [Example 16, 2-(4-fluorophenyl)-N-{4-[3-(pyrimidin-2-yl)-1H-pyrrolo[3,2-b]pyridin-2-yl]pyridin-2-yl}acetamide], for which the IC50 at CSNK1A1 came out at 4.77 nM; on CSNK1D, 9.02 nM.
For `O=C(Cc1ccc(F)cc1)Nc1cc(-c2[nH]c3cccnc3c2-c2ccc(Cl)s2)ccn1` [Example 17, N-{4-[3-(5-chlorothiophen-2-yl)-1H-pyrrolo[3,2-b]pyridin-2-yl]pyridin-2-yl}-2-(4-fluorophenyl)acetamide], in that order: 1.88 nM and 3.15 nM.
For `O=C(Cc1ccc(F)cc1)Nc1cc(-c2[nH]c3ccnnc3c2-c2ccccn2)ccn1` [Example 21, 2-(4-fluorophenyl)-N-{4-[7-(pyridin-2-yl)-5H-pyrrolo[3,2-c]pyridazin-6-yl]pyridin-2-yl}acetamide], in that order: 1.66 nM and 3.96 nM.
Taken in the same sequence, the figures for `O=C(Cc1ccc(F)cc1)Nc1cc(-c2[nH]c3c(Cl)ccnc3c2-c2ccccn2)ccn1` [Example 22, N-{4-[7-chloro-3-(pyridin-2-yl)-1H-pyrrolo[3,2-b]pyridin-2-yl]pyridin-2-yl}-2-(4-fluorophenyl)acetamide] were 1.6 nM and 5.84 nM.
On to `O=C(Cc1ccc(F)cc1)Nc1cc(-c2[nH]c3ccc(Cl)nc3c2-c2ccccn2)ccn1` [Example 23, N-{4-[5-chloro-3-(pyridin-2-yl)-1H-pyrrolo[3,2-b]pyridin-2-yl]pyridin-2-yl}-2-(4-fluorophenyl)acetamide], for which the results for the IC50 on CSNK1A1 and at CSNK1D were 0.941 nM and 3.18 nM, respectively.
Taken in the same sequence, the figures for `Cc1cc2[nH]c(-c3ccnc(NC(=O)Cc4ccc(F)cc4)c3)c(-c3ccccn3)c2nc1F` [Example 27, N-{4-[5-fluoro-6-methyl-3-(pyridin-2-yl)-1H-pyrrolo[3,2-b]pyridin-2-yl]pyridin-2-yl}-2-(4-fluorophenyl)acetamide] were 1.6 nM and 5.11 nM.
For `COc1ccnc2c(-c3ccccn3)c(-c3ccnc(NC(=O)Cc4ccc(F)cc4)c3)[nH]c12` [Example 31, 2-(4-fluorophenyl)-N-{4-[7-methoxy-3-(pyridin-2-yl)-1H-pyrrolo[3,2-b]pyridin-2-yl]pyridin-2-yl}acetamide], in that order: 2.5 nM and 4.4 nM.
Taken in the same sequence, the figures for `COc1ccc2[nH]c(-c3ccnc(NC(=O)Cc4ccc(F)cc4)c3)c(-c3ccccn3)c2n1` [Example 32, 2-(4-fluorophenyl)-N-{4-[5-methoxy-3-(pyridin-2-yl)-1H-pyrrolo[3,2-b]pyridin-2-yl]pyridin-2-yl}acetamide] were 2.5 nM and 7.52 nM.
Turning to `C=Cc1ccnc2c(-c3ccccn3)c(-c3ccnc(NC(=O)Cc4ccc(F)cc4)c3)[nH]c12` [Example 33, N-{4-[7-ethenyl-3-(pyridin-2-yl)-1H-pyrrolo[3,2-b]pyridin-2-yl]pyridin-2-yl}-2-(4-fluorophenyl)acetamide], the values for the IC50 on CSNK1A1 and on CSNK1D were 3.97 nM and 9.16 nM, respectively.
For `CCc1ccnc2c(-c3ccccn3)c(-c3ccnc(NC(=O)Cc4ccc(F)cc4)c3)[nH]c12` [Example 34, N-{4-[7-ethyl-3-(pyridin-2-yl)-1H-pyrrolo[3,2-b]pyridin-2-yl]pyridin-2-yl}-2-(4-fluorophenyl)acetamide], in that order: 3.08 nM and 3.84 nM.
For `O=C(Cc1ccc(F)cc1)Nc1cc(-c2[nH]c3c(C4CC4)ccnc3c2-c2ccccn2)ccn1` [Example 35, N-{4-[7-cyclopropyl-3-(pyridin-2-yl)-1H-pyrrolo[3,2-b]pyridin-2-yl]pyridin-2-yl}-2-(4-fluorophenyl)acetamide], in that order: 2.79 nM and 4.19 nM.
Taken in the same sequence, the figures for `COCCc1ccnc2c(-c3ccccn3)c(-c3ccnc(NC(=O)Cc4ccc(F)cc4)c3)[nH]c12` [Example 36, 2-(4-fluorophenyl)-N-{4-[7-(2-methoxyethyl)-3-(pyridin-2-yl)-1H-pyrrolo[3,2-b]pyridin-2-yl]pyridin-2-yl}acetamide] were 14.8 nM and 14.8 nM.
Regarding `CN1CCN(c2ccnc3c(-c4ccccn4)c(-c4ccnc(NC(=O)Cc5ccc(F)cc5)c4)[nH]c23)CC1` [Example 38, 2-(4-fluorophenyl)-N-{4-[7-(4-methylpiperazin-1-yl)-3-(pyridin-2-yl)-1H-pyrrolo[3,2-b]pyridin-2-yl]pyridin-2-yl}acetamide], the IC50 at CSNK1A1 was 3.32 nM; on CSNK1D, 5.59 nM.
With `CN1CCC(N(C)c2ccnc3c(-c4ccccn4)c(-c4ccnc(NC(=O)Cc5ccc(F)cc5)c4)[nH]c23)CC1` [Example 39, 2-(4-fluorophenyl)-N-(4-{7-[methyl(1-methylpiperidin-4-yl)amino]-3-(pyridin-2-yl)-1H-pyrrolo[3,2-b]pyridin-2-yl}pyridin-2-yl)acetamide], the IC50 came to 3.49 nM at CSNK1A1 and 13.6 nM at CSNK1D.
Taken in the same sequence, the figures for `O=C(Cc1ccc(F)cc1)Nc1cc(-c2[nH]c3c(N4CCCC4=O)ccnc3c2-c2ccccn2)ccn1` [Example 40, 2-(4-fluorophenyl)-N-{4-[7-(2-oxopyrrolidin-1-yl)-3-(pyridin-2-yl)-1H-pyrrolo[3,2-b]pyridin-2-yl]pyridin-2-yl}acetamide] were 6.26 nM and 10.3 nM.
`Cc1cc(CC(=O)Nc2cc(-c3[nH]c4cccnc4c3-c3ccccn3)ccn2)ccc1F` [Example 41, 2-(4-fluoro-3-methylphenyl)-N-{4-[3-(pyridin-2-yl)-1H-pyrrolo[3,2-b]pyridin-2-yl]pyridin-2-yl}acetamide]: the IC50 on CSNK1A1 is 4.03 nM; on CSNK1D it was 12.1 nM.
For `O=C(Cc1ccc(Cl)cc1)Nc1cc(-c2[nH]c3cccnc3c2-c2ccccn2)ccn1` [Example 42, 2-(4-chlorophenyl)-N-{4-[3-(pyridin-2-yl)-1H-pyrrolo[3,2-b]pyridin-2-yl]pyridin-2-yl}acetamide], in that order: 1.23 nM and 3.33 nM.

(Values after patent US20230339939A1 (Bayer Aktiengesellschaft, priority 2020, published 2023).)
